# Experiments:
# SaCas9 [1] = biological target: T1, SaCas9 (Staphylococcus aureus, UniProt J7RUA5); test: eGFP secondary assay, SaCas9; type: cell-based; details: for Z score Avg Z: average of two replicates, Zscore>3 selected as hit; for Normalized Inhibition Rep 1: replicate 1; for Normalized eGFP Disruption Rep 1: replicate 1, % eGFP disruption; for Z score Rep1: replicate 1, Zscore>3 selected as hit; for Normalized Inhibition Rep 2: replicate 2; for Normalized eGFP Disruption Rep 2: replicate 2, % eGFP disruption; for Z score Rep 2: replicate 2, Zscore>3 selected as hit
# T1 sequence (J7RUA5 1-1053): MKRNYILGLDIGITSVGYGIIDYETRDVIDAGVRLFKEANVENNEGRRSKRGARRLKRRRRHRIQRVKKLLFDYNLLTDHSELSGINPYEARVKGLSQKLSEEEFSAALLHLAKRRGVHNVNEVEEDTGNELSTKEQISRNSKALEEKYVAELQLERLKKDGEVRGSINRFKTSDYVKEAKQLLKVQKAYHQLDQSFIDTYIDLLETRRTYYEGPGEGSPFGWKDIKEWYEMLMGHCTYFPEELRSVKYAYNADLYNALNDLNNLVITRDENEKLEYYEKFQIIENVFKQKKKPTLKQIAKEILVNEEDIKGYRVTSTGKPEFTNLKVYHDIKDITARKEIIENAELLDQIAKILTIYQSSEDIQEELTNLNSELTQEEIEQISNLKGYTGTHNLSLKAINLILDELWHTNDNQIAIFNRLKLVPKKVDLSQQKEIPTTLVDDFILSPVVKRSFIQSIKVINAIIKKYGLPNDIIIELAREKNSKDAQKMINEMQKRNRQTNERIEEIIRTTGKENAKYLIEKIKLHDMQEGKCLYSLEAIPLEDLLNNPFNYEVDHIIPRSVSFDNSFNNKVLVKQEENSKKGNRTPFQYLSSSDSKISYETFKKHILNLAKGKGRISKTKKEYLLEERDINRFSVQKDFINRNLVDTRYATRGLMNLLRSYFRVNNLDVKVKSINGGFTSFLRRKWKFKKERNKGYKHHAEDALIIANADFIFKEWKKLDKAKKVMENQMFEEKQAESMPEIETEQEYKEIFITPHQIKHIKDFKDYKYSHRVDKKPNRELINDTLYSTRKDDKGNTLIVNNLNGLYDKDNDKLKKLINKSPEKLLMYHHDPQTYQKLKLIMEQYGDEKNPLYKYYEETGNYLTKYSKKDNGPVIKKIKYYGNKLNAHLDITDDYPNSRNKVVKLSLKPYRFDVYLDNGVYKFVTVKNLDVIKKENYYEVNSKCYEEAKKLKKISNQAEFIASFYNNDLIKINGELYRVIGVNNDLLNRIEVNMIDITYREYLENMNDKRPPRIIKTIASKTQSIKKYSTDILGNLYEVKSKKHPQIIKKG
# Method: All hit compounds were moved forward into the secondary and tertiary screens, in which they were tested in cell-based assays. An eGFP assay is used to determine hits in cells as the secondary screen (eGFP assay).
# The eGFP secondary assay evaluated the hits identified from the primary screen. The compounds were judged off the % eGFP disruption to determine the Cas9 inhibition and the assay Zscore. […] The hits from the secondary screens will be processed through tertiary screens of dose studies and HiBit Assay as detailed herein.
# SaCas9 [2] = biological target: T1, SaCas9; test: Strand displacement assay, SaCas9 primary screen; type: biochemical; details: for Auto Zscore Rep 1 / Auto Zscore Rep 2 / Normalized Zscore Rep 1 / Normalized Zscore Rep 2: SaCas9 primary screen; for Auto Zscore Rep 1 / Normalized Zscore Rep 1: replicate 1; for Auto Zscore Rep 2 / Normalized Zscore Rep 2: replicate 2; for Normalized Zscore Rep 1 / Normalized Zscore Rep 2: weaker potential hits; for 3 sigma Hit: flag 1 = hit at 3 sigma
# Method in brief: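 Cas9 RNP (1:1.2 protein:gRNA) pre-formed in 20 mM Tris-HCl pH 7.5, 100 mM KCl, 5 mM MgCl2, used at 10 nM (2× stock) with Alexa-Fluor 647 substrate/quencher at 1 nM/5 nM (2× stock). Reaction ran 2.5 h at 37°C; strand displacement read as fluorescence. Hits called by Z-score: 3–5σ weak, >5σ strong.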
# SpCas9 [3] = biological target: T2, SpCas9 (Streptococcus pyogenes serotype M1, UniProt Q99ZW2); test: HiBiT knock-in assay, SpCas9, HEK293T cells; type: cell-based
# Description: Primary and secondary screening. The primary screen assayed a selection of unique chemical scaffolds derived from commercially available compounds and known bioactive molecular libraries (Table 7). Auto-fluorescent compounds were removed by a counter screen. Overall, the CAA was used to assay 122,409 small molecules with over 2,500 unique chemical scaffolds (FIG. 64F, Table 7). Of these compounds, 547 were selected as hits (Z score >3 in both replicates) for testing in orthogonal cell-based secondary assays. Hits were tested in duplicate in an eGFP disruption assay, wherein U2OS.eGFP.PEST cells^33 transfected with SpCas9 plasmid and eGFP-targeting gRNA plasmid were incubated with 20 μM of the compounds. In this assay, any compound that inhibited SpCas9 would rescue the loss of eGFP fluorescence. Here, toxic and auto-fluorescent compounds with a high GFP signal in cells were removed as false positives. […] Next, Applicants tested the 15 compounds in a luminescence-based gain-of-signal HiBiT knock-in assay, which involves SpCas9-mediated homology-directed tagging of GAPDH with a short peptide that luminesces upon complementation with a subunit derived from nanoluciferase.^34 Complementarily, the eGFP-disruption assay is fluorescence-based and involves error-prone DNA repair. As a counter-screen to remove false positives caused by cell death (viability <80%), the cell viability was measured after incubation.
# Approximately 400,000 HEK293T cells were nucleofected with 400 ng of SpCas9 plasmid, 40 ng of GAPDH-targeting gRNA plasmid, and 40 pmol of single-strand oligodeoxynucleotide (ssODN) using SF Cell Line 4D-Nucleofector X Kit (Lonza) following the pulse program of DS-150. For RNP-based genome editing, 10 pmol of Cas9 and 12 pmol of gRNA were mixed and incubated for 5 min. Then, 20 pmol of ssODN was added. Cells were nucleofected with the resulting mixture using the same pulse program. Cells were then transferred to a 96-well plate at the density of 35,000 cells per well, and incubated with indicated amount of compounds for 24 h. Cell viability was measured using PrestoBlue reagent (Thermo) with a SpectraMax M5 (Molecular Devices) at the excitation and emission wavelength of 544 nm and 590 nm, respectively. Next, luminescence measurement was performed using the Nano-Glo HiBiT Lytic Detection System (Promega) according to the manufacturer's protocol with an EnVision Multilabel Plate Reader (PerkinElmer) at the integration time of 0.5 s per well. The resulting luminescence signals were normalized based on the cell viability.^34
# SpCas9 [4] = biological target: T2, SpCas9; test: eGFP disruption assay, SpCas9, U2OS.eGFP.PEST cells; type: cell-based; details: for SpCas9 eGFP disruption Rep1: replicate 1, raw readout; for SpCas9 eGFP disruption Rep2: replicate 2, raw readout
# Method in brief: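 Rescue of eGFP signal lost through Cas9-induced NHEJ indels serves as the inhibition read-out, after 24 h compound exposure (20 μM for hits, variable for dose-response). Editing was delivered by nucleofection into U2OS.eGFP.PEST cells as SpCas9/gRNA plasmids (300/30 ng) or RNP (10/12 pmol). Toxic and autofluorescent compounds were excluded.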
# SpCas9 [5] = biological target: T2, SpCas9; test: Strand displacement assay (SDA) / cumulative activity assay (CAA), SpCas9 primary screen; type: biochemical; details: Primary Screen (150 min)
# Method in brief: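 SpCas9:gRNA RNP in 20 mM Tris-HCl pH 7.5, 100 mM KCl, 5 mM MgCl2 was used at 10 nM (2× stock) with Alexa Fluor 647-labelled substrate and excess quencher strand (1 nM and 5 nM, 2× stocks). Fluorescence was read after 2.5 h at 37 °C, where cleavage lets the quencher strand anneal.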
# [6] = result in words, relative to BRD7586
# [7] = Cas9 = lower control, Ctrl = upper control
# [8] = replicate 1, normalized, lower control about 0, upper control about 1
# [9] = replicate 2, normalized, lower control about 0, upper control about 1
# T2 sequence (Q99ZW2 whole entry): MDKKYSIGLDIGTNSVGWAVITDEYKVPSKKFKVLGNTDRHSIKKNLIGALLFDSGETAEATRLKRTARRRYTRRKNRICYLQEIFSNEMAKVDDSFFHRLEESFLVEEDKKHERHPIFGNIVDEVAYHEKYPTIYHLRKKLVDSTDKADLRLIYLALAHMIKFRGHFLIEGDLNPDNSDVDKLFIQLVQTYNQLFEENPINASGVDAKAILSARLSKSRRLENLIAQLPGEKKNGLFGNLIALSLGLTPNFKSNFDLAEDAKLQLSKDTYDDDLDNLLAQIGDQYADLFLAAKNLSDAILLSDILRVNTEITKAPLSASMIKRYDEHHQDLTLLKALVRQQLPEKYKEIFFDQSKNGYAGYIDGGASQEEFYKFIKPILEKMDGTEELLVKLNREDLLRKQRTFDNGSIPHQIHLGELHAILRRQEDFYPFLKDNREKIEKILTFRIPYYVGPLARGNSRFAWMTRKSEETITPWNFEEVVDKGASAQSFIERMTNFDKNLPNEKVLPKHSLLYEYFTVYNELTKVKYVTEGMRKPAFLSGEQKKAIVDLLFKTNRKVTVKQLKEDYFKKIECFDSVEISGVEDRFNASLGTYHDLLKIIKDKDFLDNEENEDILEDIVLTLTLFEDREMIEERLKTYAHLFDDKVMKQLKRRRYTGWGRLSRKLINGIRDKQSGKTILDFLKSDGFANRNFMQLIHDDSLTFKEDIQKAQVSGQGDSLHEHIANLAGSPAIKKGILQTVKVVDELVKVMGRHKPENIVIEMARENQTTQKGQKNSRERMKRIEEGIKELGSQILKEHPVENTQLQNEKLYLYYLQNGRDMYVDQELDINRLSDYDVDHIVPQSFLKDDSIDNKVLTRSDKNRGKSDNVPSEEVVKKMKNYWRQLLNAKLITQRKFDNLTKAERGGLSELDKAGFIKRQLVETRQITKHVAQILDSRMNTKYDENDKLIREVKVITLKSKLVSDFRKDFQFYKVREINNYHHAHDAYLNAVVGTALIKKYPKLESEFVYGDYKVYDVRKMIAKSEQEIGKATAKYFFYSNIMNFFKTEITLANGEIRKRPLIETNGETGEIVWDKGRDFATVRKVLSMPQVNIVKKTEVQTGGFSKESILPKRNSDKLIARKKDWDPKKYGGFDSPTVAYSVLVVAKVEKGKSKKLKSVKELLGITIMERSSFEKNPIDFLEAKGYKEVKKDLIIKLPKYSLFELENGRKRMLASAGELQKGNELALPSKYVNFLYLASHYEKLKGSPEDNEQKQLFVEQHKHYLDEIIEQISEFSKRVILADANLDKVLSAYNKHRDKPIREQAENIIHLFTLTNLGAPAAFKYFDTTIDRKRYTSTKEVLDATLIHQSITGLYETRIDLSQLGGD
Structure (SMILES),Z score Avg Z (SaCas9 [1]),Normalized Inhibition Rep 1 (SaCas9 [1]),Normalized eGFP Disruption Rep 1 (SaCas9 [1]),Z score Rep1 (SaCas9 [1]),Normalized Inhibition Rep 2 (SaCas9 [1]),Normalized eGFP Disruption Rep 2 (SaCas9 [1]),Z score Rep 2 (SaCas9 [1]),Auto Zscore Rep 1 (SaCas9 [2]),Auto Zscore Rep 2 (SaCas9 [2]),Normalized Zscore Rep 1 (SaCas9 [2]),Normalized Zscore Rep 2 (SaCas9 [2]),3 sigma Hit (SaCas9 [2]),Z score Rep1 (SpCas9 [4]; replicate 1),SpCas9 eGFP disruption Rep1 (SpCas9 [4]; [7]),Normalized Z rep1 (SpCas9 [4]; [8]),Z socre Rep2 (SpCas9 [4]; replicate 2),SpCas9 eGFP disruption Rep2 (SpCas9 [4]; [7]),Normalized Z rep2 (SpCas9 [4]; [9]),further results
NC(=O)c1sc(=S)n(Cc2ccccc2)c1N [Compound F128-0030],8.704,70.438,29.562,9.005,67.693,32.307,8.402,−0.4371,0.1928,0.187,0.143,1,,,,,,,
O=C(CCSc1ccc(Cl)cc1)Nc1nc(-c2ccncc2)cs1 [Compound F2537-0908],,,,,,,,,,,,,,,,,,,Activity in HiBiT knock-in assay (SpCas9 [3]; [6]): significantly lower inhibitory activity; Activity in eGFP-disruption assay (SpCas9 [4]; [6]): significantly lower inhibitory activity
O=C(CCS(=O)(=O)c1ccccc1)Nc1nc(-c2ccncc2)cs1 [Compound G786-1264],,,,,,,,,,,,,3.83,82.717,0.37,9.69,83.951,0.42,"Hibit assay-% inhibition (SpCas9 [3]): 72.63%; eGFP disruption-% inhibition (SpCas9 [4]): 41.72%; % GFP+, Rep 1 (SpCas9 [4]; eGFP assay, replicate 1): 82.72%; Z score Rep1 (SpCas9 [4]; eGFP assay, replicate 1): 3.83; % GFP+, Rep 2 (SpCas9 [4]; eGFP assay, replicate 2): 83.95%; Average Normalized Z score (SpCas9 [5]): 0.06; avg z score primary (SpCas9 [5]): 5.95; Normalized Z score 1 (SpCas9 [5]; replicate 1): 0.06; Normalized Z score 2 (SpCas9 [5]; replicate 2): 0.06"
O=C(NCCCN1CCC(N2CCCCC2)CC1)C1=Cc2sc3c(c2CS1)CCCC3 [E722-2652],5.750,43.522,56.478,5.564,47.827,52.173,5.937,1.567,0.3807,0.4606,0.3192,1,,,,,,,5 sigma Hit (SaCas9 [2]; flag 1 = hit at 5 sigma): 1
CNC(=O)c1sc(=S)n2c1[nH]c(=O)c1cc(Br)ccc12 [F083-0285],3.318,30.708,69.292,3.635,22.819,77.181,3.002,,,,,,−1.78,,,−4.46,,,Normalized Z rep1 (SpCas9 [4]; replicate 1): −0.25; SpCas9 eGFP disruption Rep1 (SpCas9 [4]): 61.126; Normalized Z rep2 (SpCas9 [4]; replicate 2): −0.48; SpCas9 eGFP disruption Rep2 (SpCas9 [4]): 49.642
C=CC1=C(C(=O)O)N2C(=O)[C@@H](NC(=O)C(=NOCC(=O)O)c3csc(N)n3)[C@H]2SC1.O [SAM001246816],3.731,37.117,62.883,4.745,21.891,78.109,2.717,,,,,,0.17,76.555,0.03,−1.15,74.015,−0.12,
